Measured values taken from the NIST ThermoML archive (doi:10.1021/je0604481).

Test: mn = molality of the nth substance listed, in mol/kg
Details: Liquid; for mass density: Constant-volume piezometry; for viscosity: Capillary tube (Ostwald / Ubbelohde) method

O=S(=O)([O-])[O-].[Mg+2] [magnesium sulfate] + O
Details	mass density [kg/m3]	viscosity [mPa·s]
288.57 K, 101 kPa, m1 = 2.224	1235.34	–
288.57 K, 101 kPa, m1 = 2.535	1263.36	–
291.15 K, 101 kPa, m1 = 0.084	1008.8	–
297.7 K, 101 kPa, m1 = 2.224	1231.87	–
297.7 K, 101 kPa, m1 = 2.535	1259.83	–
298.15 K, 100 kPa, m1 = 0.085	–	0.9407
298.15 K, 100 kPa, m1 = 0.255	–	1.055
298.15 K, 100 kPa, m1 = 0.437	–	1.184
298.15 K, 100 kPa, m1 = 0.722	–	1.442
298.15 K, 100 kPa, m1 = 0.923	–	1.651
298.15 K, 100 kPa, m1 = 1.824	–	3.137
298.15 K, 100 kPa, m1 = 2.291	–	4.414
298.15 K, 100 kPa, m1 = 2.623	–	5.789
298.15 K, 10000 kPa, m1 = 0.085	–	0.94
298.15 K, 10000 kPa, m1 = 0.255	–	1.054
298.15 K, 10000 kPa, m1 = 0.437	–	1.184
298.15 K, 10000 kPa, m1 = 0.722	–	1.443
298.15 K, 10000 kPa, m1 = 0.923	–	1.653
298.15 K, 10000 kPa, m1 = 1.824	–	3.138
298.15 K, 10000 kPa, m1 = 2.291	–	4.415
298.15 K, 10000 kPa, m1 = 2.623	–	5.79
298.15 K, 30000 kPa, m1 = 0.085	–	0.9415
298.15 K, 30000 kPa, m1 = 0.255	–	1.056
298.15 K, 30000 kPa, m1 = 0.437	–	1.185
298.15 K, 30000 kPa, m1 = 0.722	–	1.445
298.15 K, 30000 kPa, m1 = 0.923	–	1.655
298.15 K, 30000 kPa, m1 = 1.824	–	3.14
298.15 K, 30000 kPa, m1 = 2.291	–	4.417
298.15 K, 30000 kPa, m1 = 2.623	–	5.792
299.67 K, 2040 kPa, m1 = 2.224	1231.7	–
299.67 K, 7179 kPa, m1 = 2.224	1233.3	–
299.67 K, 16830 kPa, m1 = 2.224	1236.3	–
299.67 K, 22550 kPa, m1 = 2.224	1238.2	–
299.67 K, 29600 kPa, m1 = 2.224	1240.3	–
303.03 K, 101 kPa, m1 = 0.469	1050.08	–
303.15 K, 101 kPa, m1 = 0.841	1090.98	–
308.15 K, 100 kPa, m1 = 0.085	–	0.761
308.15 K, 100 kPa, m1 = 0.255	–	0.8459
308.15 K, 100 kPa, m1 = 0.437	–	0.9437
308.15 K, 100 kPa, m1 = 0.722	–	1.151
308.15 K, 100 kPa, m1 = 0.923	–	1.305
308.15 K, 100 kPa, m1 = 1.824	–	2.415
308.15 K, 100 kPa, m1 = 2.291	–	3.374
308.15 K, 100 kPa, m1 = 2.623	–	4.352
308.15 K, 10000 kPa, m1 = 0.085	–	0.7618
308.15 K, 10000 kPa, m1 = 0.255	–	0.8466
308.15 K, 10000 kPa, m1 = 0.437	–	0.946
308.15 K, 10000 kPa, m1 = 0.722	–	1.153
308.15 K, 10000 kPa, m1 = 0.923	–	1.305
308.15 K, 10000 kPa, m1 = 1.824	–	2.418
308.15 K, 10000 kPa, m1 = 2.291	–	3.376
308.15 K, 10000 kPa, m1 = 2.623	–	4.355
308.15 K, 30000 kPa, m1 = 0.085	–	0.7645
308.15 K, 30000 kPa, m1 = 0.255	–	0.8495
308.15 K, 30000 kPa, m1 = 0.437	–	0.9486
308.15 K, 30000 kPa, m1 = 0.722	–	1.156
308.15 K, 30000 kPa, m1 = 0.923	–	1.309
308.15 K, 30000 kPa, m1 = 1.824	–	2.422
308.15 K, 30000 kPa, m1 = 2.291	–	3.348
308.15 K, 30000 kPa, m1 = 2.623	–	4.364
308.6 K, 101 kPa, m1 = 0.261	1024.48	–
310.15 K, 101 kPa, m1 = 2.224	1226.56	–
310.15 K, 101 kPa, m1 = 2.535	1254.38	–
314.98 K, 2157 kPa, m1 = 2.535	1252.7	–
314.98 K, 8159 kPa, m1 = 2.535	1254.5	–
314.98 K, 15690 kPa, m1 = 2.535	1256.7	–
314.98 K, 25910 kPa, m1 = 2.535	1259.9	–
314.98 K, 29800 kPa, m1 = 2.535	1261	–
323.05 K, 2197 kPa, m1 = 2.224	1221.5	–
323.05 K, 10120 kPa, m1 = 2.224	1224	–
323.05 K, 19850 kPa, m1 = 2.224	1227	–
323.05 K, 26300 kPa, m1 = 2.224	1229.1	–
323.05 K, 30500 kPa, m1 = 2.224	1230.3	–
323.15 K, 100 kPa, m1 = 0.085	–	0.5785
323.15 K, 100 kPa, m1 = 0.255	–	0.6403
323.15 K, 100 kPa, m1 = 0.437	–	0.7163
323.15 K, 100 kPa, m1 = 0.722	–	0.8612
323.15 K, 100 kPa, m1 = 0.923	–	0.9738
323.15 K, 100 kPa, m1 = 1.824	–	1.744
323.15 K, 100 kPa, m1 = 2.291	–	2.373
323.15 K, 100 kPa, m1 = 2.623	–	2.997
323.15 K, 101 kPa, m1 = 0.084	998.05	–
323.15 K, 101 kPa, m1 = 0.261	1018.3	–
323.15 K, 101 kPa, m1 = 0.469	1041.45	–
323.15 K, 101 kPa, m1 = 0.841	1082.67	–
323.15 K, 10000 kPa, m1 = 0.085	–	0.5809
323.15 K, 10000 kPa, m1 = 0.255	–	0.6431
323.15 K, 10000 kPa, m1 = 0.437	–	0.7198
323.15 K, 10000 kPa, m1 = 0.722	–	0.8651
323.15 K, 10000 kPa, m1 = 0.923	–	0.9781
323.15 K, 10000 kPa, m1 = 1.824	–	1.751
323.15 K, 10000 kPa, m1 = 2.291	–	2.382
323.15 K, 10000 kPa, m1 = 2.623	–	3.009
323.15 K, 30000 kPa, m1 = 0.085	–	0.5856
323.15 K, 30000 kPa, m1 = 0.255	–	0.648
323.15 K, 30000 kPa, m1 = 0.437	–	0.7256
323.15 K, 30000 kPa, m1 = 0.722	–	0.8714
323.15 K, 30000 kPa, m1 = 0.923	–	0.9853
323.15 K, 30000 kPa, m1 = 1.824	–	1.764
323.15 K, 30000 kPa, m1 = 2.291	–	2.4
323.15 K, 30000 kPa, m1 = 2.623	–	3.031
324.35 K, 101 kPa, m1 = 2.224	1219.96	–
324.35 K, 101 kPa, m1 = 2.535	1247.46	–
340.25 K, 101 kPa, m1 = 2.224	1211.6	–
340.25 K, 101 kPa, m1 = 2.535	1238.93	–
348.13 K, 1549 kPa, m1 = 2.535	1235.1	–
348.13 K, 9807 kPa, m1 = 2.535	1237.7	–
348.13 K, 14220 kPa, m1 = 2.535	1238.9	–
348.13 K, 23810 kPa, m1 = 2.535	1241.9	–
348.13 K, 30020 kPa, m1 = 2.535	1243.8	–
348.15 K, 100 kPa, m1 = 0.437	–	0.491
